What was measured:
Format in all cases: cell-based
[1] = tested on: 4T1 cells; assay: MTT assay, 72 h, 4T1; conditions: Mus musculus, mean ± SD
Protocol: (§1) The cytotoxic potential of the synthesized compounds was investigated using the MTT assay after 72 h incubation with a panel of human and murine cancer cell lines, including colorectal carcinoma (HCT116), estrogen receptor-positive breast adenocarcinoma (MCF-7), triple-negative breast adenocarcinoma (MDA-MB-231), epidermoid carcinoma (KB3-1), myeloid leukemia (K562), and glioblastoma (U373), and mouse breast carcinoma (4T1) cells. To assess the selectivity of the compounds, pseudo-normal cell lines—human keratinocytes (HaCaTs) and mouse fibroblasts (NIH3T3s)—were also tested under the same conditions.
(§2) Human breast adenocarcinoma cells of MCF-7 and MDA-MB-231 lines, human glioblastoma cells of U373 line, human chronic myelogenous leukemia cells of K562 line, human colorectal carcinoma cells of HCT116 line, and human epidermoid carcinoma cells of KB3-1 line were kindly donated by a Collection of the Institute for Cancer Research at Vienna Medical University (Vienna, Austria). Human keratinocytes of HaCaT line, murine breast carcinoma cells of 4T1 line, and murine fibroblasts of the NIH3T3 line were obtained from the Cell Collection of the R.E. Kavetsky Institute of Experimental Pathology, Oncology and Radiobiology of the National Academy of Sciences of Ukraine (Kyiv, Ukraine). MCF-7, MDA-MB-231, U373, K562, HaCaT, and NIH3T3 cells were cultured in DMEM medium (Sigma-Aldrich, Burlington, MA, USA) supplemented with 2 mM L-glutamine, 4500 mg/L glucose, and 1 mM sodium pyruvate. HCT116 and KB3-1 cells were maintained in RPMI-1640 medium supplemented with 2 mM L-glutamine (Sigma-Aldrich, USA). Both media were supplemented with 10% fetal bovine serum (Sigma-Aldrich, USA). All cell lines were incubated at 37 °C in a humidified atmosphere containing 5% CO2.
(§3) The substrate cells were seeded at a density of 5000 cells per 100 µL, while suspension K562 cells were seeded at 15,000 cells per 100 µL in 96-well plates and incubated overnight. Doxorubicin (Dox, Sigma-Aldrich, USA) was used as a reference drug. Studied substances were then added in 100 µL of culture medium, and the cells were further incubated for 72 h. Subsequently, 20 µL of MTT solution (5 mg/mL, Sigma-Aldrich, USA) was added to each well and incubated for 2–4 h. Formazan crystals were then solubilized by adding dimethyl sulfoxide (Sigma-Aldrich, USA). Absorbance was measured using a BioTek ELx800 Absorbance Reader (BioTek Instruments, Inc., Winooski, VT, USA). The results were analyzed and illustrated using GraphPad Prism (version 8.0.1; GraphPad Software, San Diego, CA, USA) and presented as a mean (M) ± standard deviation (SD). The IC50 values of the compounds were determined using nonlinear regression analysis in GraphPad Prism 10.4.2 [40].

[2] = tested on: U373 cells; assay: MTT assay, 72 h, U373; conditions: Homo sapiens, U373 MG, mean ± SD
Protocol: as §1, §2, §3

[3] = tested on: K562 cells; assay: MTT assay, 72 h, K562; conditions: Homo sapiens, mean ± SD
Protocol: as §1, §2, §3

[4] = tested on: NIH3T3 cells; assay: MTT assay, 72 h, NIH3T3 (pseudo-normal); conditions: Mus musculus, mean ± SD
Protocol: as §1, §2, §3

[5] = tested on: HCT116 cells; assay: MTT assay, 72 h, HCT116; conditions: Homo sapiens, HCT-116, mean ± SD
Protocol: as §1, §2, §3

[6] = tested on: KB3-1 cells; assay: MTT assay, 72 h, KB3-1; conditions: Homo sapiens, KB 3-1, mean ± SD
Protocol: as §1, §2, §3

[7] = tested on: MCF-7 cells; assay: MTT assay, 72 h, MCF-7; conditions: Homo sapiens, MCF7, mean ± SD
Protocol: as §1, §2
as §3, with “Doxorubicin (Dox, Sigma-Aldrich, USA) was used as a reference drug.” left out

[8] = tested on: MDA-MB-231 cells; assay: MTT assay, 72 h, MDA-MB-231; conditions: Homo sapiens, mean ± SD
Protocol: as §1, §2, §3

[9] = tested on: HaCaT cells; assay: MTT assay, 72 h, HaCaT (pseudo-normal); conditions: Homo sapiens, mean ± SD
Protocol: as §1, §2, §3

Row | SMILES | IC50 [1] | IC50 [2] | IC50 [3] | IC50 [4] | IC50 [5] | IC50 [6] | IC50 [7] | IC50 [8] | IC50 [9]
1 | COc1ccc(N2C(=O)CSC23C(=O)Nc2ccc(Cl)cc23)cc1 (centres unmarked) [Compound 1, 5-Chloro-3′-(4-methoxyphenyl)spiro[indoline-3,2′-thiazolidine]-2,4′-dione] | 89.4 ± 1.93 µM | 76.7 ± 0.54 µM | 71.8 ± 7.79 µM | 77.6 ± 1.82 µM | > 100 µM | 62.3 ± 0.51 µM | > 100 µM | 85.3 ± 1.15 µM | 96.7 ± 1.02 µM
2 | O=C1CSC2(C(=O)Nc3ccc(Cl)cc32)N1c1ccc(Cl)cc1 (centres unmarked) [Compound 2, 5-Chloro-3′-(4-chlorophenyl)spiro[indoline-3,2′-thiazolidine]-2,4′-dione] | 73 ± 7.02 µM | 77.91 ± 0.56 µM | 9.96 ± 1.17 µM | 98.25 ± 0.64 µM | > 100 µM | 51.77 ± 0.26 µM | 84.9 ± 6.51 µM | 62.69 ± 0.22 µM | 82.8 ± 1.94 µM
3 | O=C1CSC2(C(=O)Nc3ccc(Br)cc32)N1c1ccc(Br)cc1 (centres unmarked) [Compound 3, 5-Bromo-3′-(4-bromophenyl)spiro[indoline-3,2′-thiazolidine]-2,4′-dione] | 43.8 ± 1.76 µM | 49.4 ± 1.33 µM | 7.99 ± 0.12 µM | 82.9 ± 2.05 µM | 88.9 ± 6.33 µM | 46.7 ± 0.54 µM | 64 ± 4.77 µM | 56.5 ± 1.93 µM | 38.4 ± 0.77 µM
4 | O=C1CSC2(C(=O)Nc3ccc(F)cc32)N1Cc1ccccc1 (centres unmarked) [Compound 4, 3′-Benzyl-5-fluorospiro[indoline-3,2′-thiazolidine]-2,4′-dione] | 91.8 ± 1.55 µM | 98.6 ± 1.92 µM | 88.8 ± 4.06 µM | > 100 µM | > 100 µM | 60.2 ± 0.72 µM | > 100 µM | 99.21 ± 0.41 µM | > 100 µM
5 | O=C1CSC2(C(=O)Nc3ccc(Cl)cc32)N1Cc1ccccc1 (centres unmarked) [Compound 5, 3′-Benzyl-5-chlorospiro[indoline-3,2′-thiazolidine]-2,4′-dione] | 95.3 ± 1.07 µM | 76.2 ± 0.8 µM | 95.5 ± 2.64 µM | > 100 µM | 92.8 ± 1.09 µM | 52.1 ± 0.67 µM | 42.6 ± 1.24 µM | 68.79 ± 0.62 µM | > 100 µM
6 | COc1ccc(N2C(=O)/C(=C/C=C/c3ccccc3)SC23C(=O)Nc2ccc(Cl)cc23)cc1 (centres unmarked) [Compound 6, (Z)-5-Chloro-3′-(4-methoxyphenyl)-5′-((E)-3-phenylallylidene)spiro[indoline-3,2′-thiazolidine]-2,4′-dione] | 68 ± 2.6 µM | 69.5 ± 0.9 µM | > 100 µM | > 100 µM | > 100 µM | 45.23 ± 0.36 µM | 83.3 ± 6.03 µM | 55.9 ± 5.67 µM | 85.3 ± 1.27 µM
7 | COc1ccc(N2C(=O)/C(=C/c3ccc(Cl)cc3)SC23C(=O)Nc2ccc(Cl)cc23)cc1 (centres unmarked) [Compound 7, (Z)-5-Chloro-5′-(4-chlorobenzylidene)-3′-(4-methoxyphenyl)spiro[indoline-3,2′-thiazolidine]-2,4′-dione] | 29 ± 0.92 µM | 72.3 ± 0.8 µM | 27.7 ± 3.02 µM | 79.7 ± 0.93 µM | > 100 µM | 17.2 ± 0.21 µM | 52.2 ± 2.15 µM | 8.55 ± 0.06 µM | 8.63 ± 0.57 µM
8 | CCOc1ccc(/C=C2\SC3(C(=O)Nc4ccc(Cl)cc43)N(c3ccc(Cl)cc3)C2=O)cc1 (centres unmarked) [Compound 9, (Z)-5-Chloro-3′-(4-chlorophenyl)-5′-(4-ethoxybenzylidene)spiro[indoline-3,2′-thiazolidine]-2,4′-dione] | 7.84 ± 0.49 µM | 98.22 ± 0.87 µM | 67.1 ± 0.7 µM | > 100 µM | > 100 µM | 22.3 ± 1.17 µM | 74.5 ± 4.73 µM | 7.89 ± 0.33 µM | > 100 µM
9 | O=C1/C(=C/c2ccc(N3CCOCC3)cc2)SC2(C(=O)Nc3ccc(Cl)cc32)N1c1ccc(Cl)cc1 (centres unmarked) [Compound 10, (Z)-5-Chloro-3′-(4-chlorophenyl)-5′-(4-morpholinobenzylidene)spiro[indoline-3,2′-thiazolidine]-2,4′-dione] | > 100 µM | > 100 µM | > 100 µM | > 100 µM | > 100 µM | 16.9 ± 0.86 µM | > 100 µM | > 100 µM | > 100 µM
10 | O=C1/C(=C/c2ccc(Cl)cc2)SC2(C(=O)Nc3ccc(Cl)cc32)N1c1ccc(Cl)cc1 (centres unmarked) [Compound 11, (Z)-5-Chloro-5′-(4-chlorobenzylidene)-3′-(4-chlorophenyl)spiro[indoline-3,2′-thiazolidine]-2,4′-dione] | 5.66 ± 0.27 µM | 66.9 ± 0.83 µM | 74.35 ± 0.66 µM | > 100 µM | > 100 µM | 6.95 ± 0.14 µM | 6 ± 0.28 µM | 6.37 ± 0.11 µM | 8.67 ± 0.49 µM
11 | COc1ccc(N2C(=O)/C(=C/c3ccc(-c4ccccn4)cc3)SC23C(=O)Nc2ccc(Cl)cc23)cc1 (centres unmarked) [Compound 12, (Z)-5-Chloro-3′-(4-methoxyphenyl)-5′-(4-(pyridin-2-yl)benzylidene)spiro[indoline-3,2′-thiazolidine]-2,4′-dione] | > 100 µM | > 100 µM | > 100 µM | > 100 µM | > 100 µM | 0.97 ± 0.11 µM | > 100 µM | > 100 µM | > 100 µM
12 | O=C1/C(=C/c2ccc(-c3ccccn3)cc2)SC2(C(=O)Nc3ccc(Cl)cc32)N1c1ccc(Cl)cc1 (centres unmarked) [Compound 13, (Z)-5-Chloro-3′-(4-chlorophenyl)-5′-(4-(pyridin-2-yl)benzylidene)spiro[indoline-3,2′-thiazolidine]-2,4′-dione] | > 100 µM | > 100 µM | 5.55 ± 0.17 µM | > 100 µM | 41.4 ± 0.62 µM | 0.99 ± 0.08 µM | > 100 µM | > 100 µM | > 100 µM
13 | CC(C)(C)c1ccc(/C=C2\SC3(C(=O)Nc4ccc(Cl)cc43)N(c3ccc(Cl)cc3)C2=O)cc1 (centres unmarked) [Compound 15, (Z)-5′-(4-(Tert-butyl)benzylidene)-5-chloro-3′-(4-chlorophenyl)spiro[indoline-3,2′-thiazolidine]-2,4′-dione] | 46.6 ± 2.98 µM | 79.3 ± 1.31 µM | > 100 µM | 90.32 ± 0.68 µM | > 100 µM | 9.77 ± 0.78 µM | 77.4 ± 2.9 µM | 30.7 ± 0.45 µM | > 100 µM
14 | CC(C)(C)c1ccc(/C=C2\SC3(C(=O)Nc4ccc(Br)cc43)N(c3ccc(Br)cc3)C2=O)cc1 (centres unmarked) [Compound 16, (Z)-5-Bromo-3′-(4-bromophenyl)-5′-(4-(tert-butyl)benzylidene)spiro[indoline-3,2′-thiazolidine]-2,4′-dione] | 69 ± 5.11 µM | > 100 µM | > 100 µM | > 100 µM | > 100 µM | 29.5 ± 0.33 µM | > 100 µM | 53.27 ± 0.51 µM | > 100 µM
15 | COc1cccc2c1C(=O)c1c(O)c3c(c(O)c1C2=O)C[C@@](O)(C(=O)CO)C[C@@H]3O[C@H]1C[C@H](N)[C@H](O)[C@H](C)O1 [Dox, Doxorubicin, reference compound] | 0.73 ± 0.1 µM | 0.35 ± 0.09 µM | 0.95 ± 0.11 µM | 0.63 ± 0.12 µM | 0.9 ± 0.11 µM | 0.53 ± 0.08 µM |  | 0.6 ± 0.08 µM | 3.1 ± 0.18 µM

Reference: article PMC12567349, “Design and Optimization of Spiro-Isatin-Thiazolidinone Hybrids with Promising Anticancer Activity” (Pharmaceuticals, 2025)
